From paper PMC9304416, “A phosphite-based screening platform for identification of enzymes favoring nonnatural cofactors” (Scientific Reports, 2022)

Biological target: T1, ME (malic enzyme) (Escherichia coli, UniProt P26616, L301R/Q392C, form not given)
T1 construct: gene maeA; C-terminal His6 tag kept; expressed in E. coli BW14329 from pTrc99K; crude lysate
Test: formazan (MTT/phenazine ethosulfate) absorbance at […] nm, crude lysate
Format: biochemical
Details: 0.05 mM NCD; 5.0 mM L-malate; 50 mM HEPES pH 7.5; 10 mM MgCl2; room temperature

T1 sequence (P26616 whole entry L301R/Q392C, form open): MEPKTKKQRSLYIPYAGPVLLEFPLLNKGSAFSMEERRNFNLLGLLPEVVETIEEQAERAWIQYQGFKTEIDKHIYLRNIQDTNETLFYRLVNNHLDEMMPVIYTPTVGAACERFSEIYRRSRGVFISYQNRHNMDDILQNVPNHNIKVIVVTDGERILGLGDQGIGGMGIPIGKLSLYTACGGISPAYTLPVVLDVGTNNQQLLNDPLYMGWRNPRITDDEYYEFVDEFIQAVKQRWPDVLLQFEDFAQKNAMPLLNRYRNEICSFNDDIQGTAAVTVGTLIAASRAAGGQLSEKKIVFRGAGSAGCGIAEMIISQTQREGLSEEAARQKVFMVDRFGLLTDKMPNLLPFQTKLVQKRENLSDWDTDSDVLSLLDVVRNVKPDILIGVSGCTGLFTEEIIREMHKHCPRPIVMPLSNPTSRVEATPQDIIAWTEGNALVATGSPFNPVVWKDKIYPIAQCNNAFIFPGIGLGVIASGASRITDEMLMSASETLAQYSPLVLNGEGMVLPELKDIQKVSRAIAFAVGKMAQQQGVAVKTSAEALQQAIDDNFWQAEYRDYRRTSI

NC(=O)c1ccc[n+]([C@@H]2O[C@H](COP(=O)(O)OP(=O)(O)OC[C@H]3O[C@@H](n4ccc(N)nc4=O)[C@H](O)[C@@H]3O)[C@@H](O)[C@H]2O)c1 [NCD]
formazan (MTT/phenazine ethosulfate) absorbance at 570 nm, crude lysate: ME* or ME-NCD, activity of ME* or ME toward NCD
